In ChEMBL document CHEMBL1128119, “Partial structures of the fungal toxin aflatrem, methyl-substituted 6,8-dioxabicyclo[3.2.1]octan-2-ones have anticonvulsant activity” (Bioorg Med Chem Lett, 1995):
pIC50: −log10 of the molar value.

Columns and labels:
[1] = target: GABA-A receptor; anion channel; experiment: Displacement of [35S]TBPS from Gamma-aminobutyric acid A (GABA-A) receptor of rat cerebral cortex; type: tissue-based
Mus musculus = species on record: Mus musculus; experiment: Effective dose required for anticonvulsant activity against pentylenetetrazole-induced seizures in mice; type: functional
[2] = Toxic dose at which 50 percent of the mice failed the rotarod toxicity test; type: organism-based; settings: mouse, in vivo

In the case of C[C@@H]1CC(=O)[C@H]2O[C@@H]1OC2(C)C, the pIC50 [1] was 2.55 and the ED50 (Mus musculus) was 110 mg/kg.
C[C@H]1CC(=O)[C@@H]2O[C@H]1OC2(C)C gave a pIC50 [1] of 2.51 and an ED50 (Mus musculus) of 145 mg/kg.
In the case of CCC1(C)CCOC1=O (stereo not drawn), the TD50 [2] was > 500 mg/kg.
With C=CC(C)(C)c1cccc2[nH]c3c(c12)C[C@@H]1CC[C@@]2(O)C4=CC(=O)[C@@H]5O[C@@]4(CC[C@]2(C)[C@@]31C)OC5(C)C the pIC50 [1] was 5.37.
For CC1CC(=O)C2OC1(C)OC2(C)C (stereo not drawn), the pIC50 [1] was 2.64, the TD50 [2] was > 300 mg/kg and the ED50 (Mus musculus) was 140 mg/kg.
With CC1CC(=O)C2OC1OC2(C)C (stereo not drawn) the pIC50 [1] was 2.52, the TD50 [2] was > 300 mg/kg and the ED50 (Mus musculus) was 131 mg/kg.
With CCC1CCCCC1=O (stereo not drawn) the pIC50 [1] was 2.92, the TD50 [2] was 245 mg/kg and the ED50 (Mus musculus) was 140 mg/kg.
For CC1(C)OC2CCC(=O)C1O2 (stereo not drawn), the pIC50 [1] was 2.29, the TD50 [2] was > 300 mg/kg and the ED50 (Mus musculus) was 192 mg/kg.
For CC1(C)OC2C=CC(=O)C1O2 (stereo not drawn), the TD50 [2] was < 100 mg/kg and the ED50 (Mus musculus) was > 300 mg/kg.
In the case of CC12CCC(=O)C(O1)C(C)(C)O2 (stereo not drawn), the pIC50 [1] was 2.50, the TD50 [2] was > 300 mg/kg and the ED50 (Mus musculus) was 247 mg/kg.
